US9802897B2, “Amidopyridinol derivative or pharmaceutically acceptable salt thereof and pharmaceutical composition comprising same as active component” (Research Cooperation Foundation of Yeungnam University, priority 2013, dated 2017)
Read-outs that look alike come from different tables or passages of the source. Marks after values point to notes of the source that are not given here.

Legend:
MDA-MB-231 cells = test: Transwell invasion assay of MDA-MB-231 breast cancer cells; format: cell-based; conditions: MDA-MB-231; for inhibition at 0.01 µM / inhibition at 0.1 µM / inhibition at 1 µM / inhibition at 10 µM: Homo sapiens, read-out: Inhibition rates of invasion of cancer cells (%)
Description: The invasion assay was performed by using the transwell insert (BD FALCON, Bedford, USA) equipped with a 8 μm pore-sized filter. An upper part of the transwell insert filter was coated with 20 μl of matrigel (1 mg/ml) while a bottom part of the same was coated with 30 μl of type I collagen (0.5 mg/ml). The MDA-MB-231 cells (5×10^5 cells/100 μl) were added to the insert chamber, and then, each inhibitor was also added thereto. To induce invasion of the cells, a medium supplemented with 5% FBS was added to each well of the bottom chamber to allow a reaction at a temperature of 37° C. in a cell incubator. 18 hours later, the cells remained after removing the solution in the insert chamber were removed by using a cotton swab, whereas cells at the bottom of the membrane were fixed with methanol and stained with hematoxylin and eosin. The cells present at the membrane were observed through a microscope, and the number of the cells was counted in the selected 5 fields at the resolution of 200×.
According to the same manner as in Experimental Example 7, inhibitory effects of the amidopyridinol derivatives synthesized in Examples above on invasion of breast cancer cells, e.g., MDA-MB-231, were reviewed. Here, to compare with, inhibitory effects of aminopyridinol derivatives, e.g., 6-amino-2,4,5-trimethylpyridine-3-ol (BJ-1101) and 6-diphenylamino-2,4,5-trimethylpyridine-3-ol (BJ-1201), on invasion of breast cancer cells, e.g., MDA-MB-231, were reviewed.

cathepsin S = test: RT-PCR of cathepsin S gene expression in MDA-MB-231 cells; format: cell-based; conditions: for effects for reducing expression of cathepsin S genes (in words): MDA-MB-231
Description: Each compound of the present invention was treated with breast cancer cells (1×10^5 cell/cm^2), e.g., MDA-MB-231, and then, cultured at a temperature of 37° C. for 24 hours in a cell incubator. Afterwards, a trizole reagent was used to extract the entire mRNA therefrom. 24 hours later, the culture medium was removed therefrom, 1 mL of the triazole reagent was added to each well, and then, the cell elusion was transferred to a 1.5 mL tube. After 200 μl of chloroform was added to each sample, the samples were subjected to centrifugation at a temperature of 4° C., at 12,000 g, for 15 minutes. 500 μl of the supernatant obtained therefrom was transferred to a new tube. After 500 μl of isopropylalcohol was added to each sample, the samples were subjected to centrifugation at a temperature of 4° C., at 12,000 g, for 15 minutes. The supernatant obtained therefrom was removed from each sample, and then, the samples were washed with 75% ethanol to clean mRNA while the precipitants were dried. Then, mRNA extracted therefrom was dissolved in RNase-free water, followed by being heated at a temperature of 55° C. for 10 minutes.
After the RNA quantification, the GoScript™ reverse transcription system (Promega Corporation, Madison, Wis., USA) was used to synthesize cDNA. Here, PCR was performed by using TaKaRa Taq™ (Takara bio Inc., Shiga, Japan), wherein a primer set of cathepsin S consists of a forward primer having SEQ ID NO: 1 (forward sequence: 5′-GCAGTGGCACAGTTGCATAA-3′) and a reverse primer having SEQ ID NO: 2 (reverse sequence: 5′-AGCACCACAAGAACCCATGT-3′). After the PCR product was subjected to agarose gel electrophoresis, the PCR product was stained with ethidium bromide (0.5 μg/ml), thereby obtaining images thereof by using the gel imaging system (UVP, Cambridge, UK). Here, the PCR product was quantified based on glyceraldehyde 3-phosphate dehydrogenase (GAPDH). A GAPDH primer used herein consists of a forward primer having SEQ ID NO: 3 (forward sequence: 5′-GGTGAAGGTCGGAGTCAACG-3′) and a reverse primer having SEQ ID NO: 4 (reverse sequence: 5′-CAAAGTTGTCATGGATGACC-3′).
Furthermore, to screen other amidopyridinol derivatives that inhibit metastasis of breast cancer cells, inhibitory effects on expression of cathepsin S genes were reviewed by treating 1 μM of each compound, in the same manner as in Experimental Example 9.

HT-29 cells / U937 cells = test: TNF-α-induced adhesion of HT-29 intestinal epithelial cells and U937 mononuclear cells; format: cell-based, human; conditions: 1 μM, pre-treated 1 hour, TNF-α 10 ng/ml; for inhibition at 1 µM: Homo sapiens, read-out: Inhibitory rates (%)
Description: HT-29 cells were cultured in a 24-well plate at a concentration of […] cells/cm^2, and meanwhile, amidopyridinol compounds 8a to 8z were pre-treated for 1 hour at each concentration in a serum-free medium supplemented only with 1% PS. Next, 10 ng/ml of TNF-α was treated therewith to allow a reaction at a temperature of 37° C. for 3 hours. After the completion of the reaction, the medium of the HT-29 cells was removed, and then, the HT-29 cells were washed with PBS once. Afterwards, U937 cells, which were treated and reacted with 10 μg/mL of BCECF-AM at a temperature of 37° C. for 30 minutes, were allowed to react with the HT-29 cells at temperature of 37° C. for 1 hour. Then, to remove U937 cells that were not adhered to the HT-29 cells, the reacted cells were washed with PBS twice. In terms of cell dissolution, 0.1% Triton X-100 in 0.1M Tris was allowed to react with the cells for 30 minutes at room temperature, and then, the cells were subjected to quantify by measuring fluorescence thereof using the Fluostar optima microplate reader (BMG Labtechnologies, Germany).

[1] = tested on: VEGF-induced angiogenesis in chicken chorioallantoic membrane (CAM); test: CAM analysis of VEGF-induced angiogenesis; format: in vivo; conditions: VEGF (20 ng/CAM) + Compound (0.01 nmol/CAM), number of blood vessels after 3 days; for inhibition in vivo at 0.01 nmol/CAM: Gallus gallus, 72 h, read-out: Inhibitory rates (%)
Description: To confirm inhibitory effects on angiogenesis through in vivo experiments, the chorioallantoic membrane (CAM) analysis was carried out (refer to Nguyen M et al., Microvascular Res., 47, pp 31-40, 1994). A fertilized egg of a chicken was cultured in conditions maintaining a temperature of 37° C. and relative humidity of 55%. On the 10th day of the culturing, a first small hole was made on an air sac part using a hypodermic needle (Green Cross Medical Corp., Korea), and then, a second hole was made on a flat part of the fertilized egg to make a window thereon. Air was removed through the first hole, i.e., the air sac part, and accordingly, the CAM was separated from the shell of the fertilized egg. Then, a grinding wheel (Multipro 395JA, Dremel, Mexico) was used to cut the air sac part, thereby making a window thereon. Next, the whatman filter disk #1 (Whatman Company, USA) was treated with 3 mg/mL of cortisone acetate, dried, and then, wet by VEGF at a concentration of 20 ng/CAM. The filter disk was placed on blood vessels through the window, and then, compounds prepared according to Examples above were each dissolved in DMSO, diluted with PBS, and then, treated for each concentration. After 3 days of treating the compounds, the CAM part on which the filter disk was placed was isolated, and then, washed with PBS. The Stemi SV6 stereomicroscope (Carl Zeiss, Germany) and the Image-Pro Plus software (Media Cybernetics; Silver Spring, Md., USA) were used to capture images of the CAM part, so as to measure the number of the blood vessels and to analyze data obtained therefrom.

[2] = Homo sapiens, MDA-MB-231, 24 h, 1 μM, MDA-MB-231, 24 hours, RT-PCR, read-out: Inhibition rate of expression of cathepsin S (%)
[3] = Homo sapiens, MDA-MB-231, 24 h, screening, 1 μM of each compound, MDA-MB-231, RT-PCR, read-out: Inhibition rate of expression of cathepsin S (%)
[4] = screening, 1 μM of each compound, MDA-MB-231, RT-PCR

| Compound | inhibition at 0.01 µM (MDA-MB-231 cells) | inhibition at 0.1 µM (MDA-MB-231 cells) | inhibition at 1 µM (MDA-MB-231 cells) | inhibition at 10 µM (MDA-MB-231 cells) | inhibitory effects on invasion of breast cancer cells (in words) (MDA-MB-231 cells) | inhibition at 1 µM (cathepsin S; [2]) | inhibition at 1 µM (HT-29 cells / U937 cells) | inhibition at 1 µM (cathepsin S; [3]) | inhibition in vivo at 0.01 nmol/CAM [1] | other results |
| --- | --- | --- | --- | --- | --- | --- | --- | --- | --- | --- |
| Cc1nc(N)c(C)c(C)c1O [BJ-1101, 6-amino-2,4,5-trimethylpyridine-3-ol] | 0.45 ± 15.6% | 0% | 0.3 ± 31.8% | 1.73 ± 22.7% | no inhibitory effects on invasion of breast cancer cells | 3.3 ± 0.82% |  |  |  | effects for reducing expression of cathepsin S genes (in words) (cathepsin S): no effects for reducing expression of cathepsin S genes |
| Cc1nc(N(c2ccccc2)c2ccccc2)c(C)c(C)c1O [BJ-1201, 6-diphenylamino-2,4,5-trimethylpyridine-3-ol] | 2.52 ± 18.7% | 0% | 1.78 ± 22.1% | 1.96 ± 6.78% | no inhibitory effects on invasion of breast cancer cells | 2.7 ± 0.12% |  |  |  | effects for reducing expression of cathepsin S genes (in words) (cathepsin S): no effects for reducing expression of cathepsin S genes |
| Cc1nc(NC(=O)CCCCl)c(C)c(C)c1O [Compound 8c, N-(5-hydroxy-3,4,6-trimethylpyridine-2-yl)-4-chlorobutaneamide] |  |  |  |  |  |  | 24.7% | 27 ± 1.33% | 70.2 ± 4.6% |  |
| Cc1nc(NC(=O)C(C)(C)C)c(C)c(C)c1O [Compound 8f, N-(5-hydroxy-3,4,6-trimethylpyridine-2-yl)pivalamide] |  |  |  |  |  |  | 37.5% | 16.4 ± 0.12% | 73.2 ± 6.4% |  |
| Cc1nc(NC(=O)c2ccc(F)cc2)c(C)c(C)c1O [Compound 8l, N-(5-hydroxy-3,4,6-trimethylpyridine-2-yl)-4-fluorobenzamide] | 8.57 ± 21.5% | 11 ± 23.1% | 33 ± 4.37% | 49.6 ± 7.82% | showed inhibitory effects on invasion of breast cancer cells | 0% | 13.7% |  | 75.3 ± 6.3% | inhibition at 10 µM (cathepsin S; Homo sapiens, MDA-MB-231, 24 h, 10 μM, MDA-MB-231, 24 hours, RT-PCR, read-out: Inhibition rate of expression of cathepsin S (%)): 12 ± 0.35% |
| Cc1nc(NC(=O)c2ccc(C(C)(C)C)cc2)c(C)c(C)c1O [Compound 8n, N-(5-hydroxy-3,4,6-trimethylpyridine-2-yl)-4-(tert-butyl)benzamide] |  |  |  |  |  |  | 22.5% | 8 ± 0.41% | 74.2 ± 7% |  |
| Cc1nc(NC(=O)c2cccc3ccccc23)c(C)c(C)c1O [Compound 8p, N-(5-hydroxy-3,4,6-trimethylpyridine-2-yl)-1-naphthamide] |  |  |  |  |  |  | 64.9% | 44 ± 2.47% | 75.8 ± 5.4% |  |
| Cc1nc(NC(=O)c2cccs2)c(C)c(C)c1O [Compound 8q, N-(5-hydroxy-3,4,6-trimethylpyridine-2-yl)thiophene-2-carboxamide] | 47.6 ± 18.1% | 59 ± 10.4% | 65.8 ± 5.03% | 67.8 ± 4.25% | showed inhibitory effects on invasion of breast cancer cells | 57 ± 1.55% | 68.4% |  | 74.8 ± 13.2% | inhibition at 0.01 µM (cathepsin S; Homo sapiens, MDA-MB-231, 24 h, 0.01 μM, MDA-MB-231, 24 hours, RT-PCR, read-out: Inhibition rate of expression of cathepsin S (%)): 42 ± 1.21%; inhibition at 0.1 µM (cathepsin S; Homo sapiens, MDA-MB-231, 24 h, 0.1 μM, MDA-MB-231, 24 hours, RT-PCR, read-out: Inhibition rate of expression of cathepsin S (%)): 52 ± 1.68%; effects for reducing expression of cathepsin S genes (in words) (cathepsin S): the most effects for reducing expression of cathepsin S genes |
| CCC(CC)C(=O)Nc1nc(C)c(O)c(C)c1C [Compound 8r, 2-ethyl-N-(5-hydroxy-3,4,6-trimethylpyridine-2-yl)butanamide] |  |  |  |  |  |  | 4.2% | 3.9 ± 0.22% |  |  |
| CCC(C(=O)Nc1nc(C)c(O)c(C)c1C)c1ccccc1 (stereo not shown) [Compound 8t, N-(5-hydroxy-3,4,6-trimethylpyridine-2-yl)-2-phenyl butanamide] |  |  |  |  |  |  |  |  |  | Inhibitory rates (%) (HT-29 cells / U937 cells): 23.6* %; Inhibition rate of expression of cathepsin S (%) (cathepsin S; [4]): 8.2 ± 0.43% |
| Cc1cc(C)c(C(=O)Nc2nc(C)c(O)c(C)c2C)c(C)c1 [Compound 8u, N-(5-hydroxy-3,4,6-trimethylpyridine-2-yl)-2,4,6-trimethylbenzamide] |  |  |  |  |  |  | 30.4% | 2.9 ± 0.08% |  |  |
| N-(5-hydroxy-3,4,6-trimethylpyridine-2-yl)isobutyryl amide [Compound 8d] |  |  |  |  |  |  |  |  |  | Inhibitory rates (%) (HT-29 cells / U937 cells): 52.3* %; Inhibition rate of expression of cathepsin S (%) (cathepsin S; [4]): 33 ± 1.23%; Inhibitory rates (%) [1]: 53.2 ± 11.5 % |
